Results reported in patent publication US11649255B2, “Indazoles as hematopoietic progenitor kinase 1 (HPK1) inhibitors and methods using same” (1st Biotherapeutics, Inc., priority 2020, dated 2023).

Molecular target: recombinant human HPK1 (Homo sapiens (Human), UniProt Q92918)
Test: HPK1 kinase assay (ADP-Glo)
Type: biochemical
Conditions: 25 μM ATP, MBP substrate
Summary of the method: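 Activity was read as ADP formed, detected by ADP-Glo luminescence after the reaction of 5 ng recombinant human HPK1 with MBP and ATP (stocks 0.5 μg/μl and 25 μM) for 40 min at 30 °C. Buffer was Tris pH 7.5 with MgCl2, BSA and DTT, with compound in 0.5% DMSO. IC50 came from inhibition curves.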

recombinant human HPK1, sequence (Q92918 whole entry): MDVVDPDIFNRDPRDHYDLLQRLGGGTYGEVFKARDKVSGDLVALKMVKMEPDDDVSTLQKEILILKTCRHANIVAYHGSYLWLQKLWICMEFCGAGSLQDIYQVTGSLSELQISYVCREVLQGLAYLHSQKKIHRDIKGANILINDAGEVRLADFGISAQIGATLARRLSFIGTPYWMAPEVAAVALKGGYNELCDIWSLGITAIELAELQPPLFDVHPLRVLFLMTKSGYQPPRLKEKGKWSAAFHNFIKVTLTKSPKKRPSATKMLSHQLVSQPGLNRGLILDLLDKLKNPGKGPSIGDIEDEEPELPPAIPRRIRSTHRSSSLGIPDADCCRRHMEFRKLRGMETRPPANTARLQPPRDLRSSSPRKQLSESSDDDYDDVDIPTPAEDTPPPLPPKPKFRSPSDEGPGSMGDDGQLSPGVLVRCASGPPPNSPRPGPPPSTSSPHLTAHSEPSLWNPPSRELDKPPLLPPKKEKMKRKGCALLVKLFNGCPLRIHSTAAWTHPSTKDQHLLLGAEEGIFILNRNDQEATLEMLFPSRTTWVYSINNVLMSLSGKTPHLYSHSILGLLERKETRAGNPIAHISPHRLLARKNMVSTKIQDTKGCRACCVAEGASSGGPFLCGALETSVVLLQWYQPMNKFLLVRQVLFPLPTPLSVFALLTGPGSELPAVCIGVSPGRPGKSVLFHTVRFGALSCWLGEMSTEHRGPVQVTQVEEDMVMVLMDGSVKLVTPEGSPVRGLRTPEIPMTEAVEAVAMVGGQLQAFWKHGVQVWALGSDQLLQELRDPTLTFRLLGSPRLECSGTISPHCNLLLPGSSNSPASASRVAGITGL

Row | Structure (SMILES) | IC50 [nM]
1 | CCc1c(F)c(F)c2[nH]ncc2c1-c1ccc2nc(NC(=O)[C@@H]3C[C@@H]3F)sc2n1 [Example 176, (1S,2S)-N-(5-(5-ethyl-6,7-difluoro-1H-indazol-4-yl)thiazolo[5,4-b]pyridin-2-yl)-2-fluorocyclopropane-1-carboxamide] | < 100
2 | CSc1n[nH]c2cc(F)c(C)c(-c3ccc4nc(NC(=O)[C@@H]5C[C@@H]5F)sc4n3)c12 [Example 148, (1S,2S)-2-fluoro-N-(5-(6-fluoro-5-methyl-3-(methylthio)-1H-indazol-4-yl)thiazolo[5,4-b]pyridin-2-yl)cyclopropane-1-carboxamide] | > 1000
3 | N#CCNc1c(F)c(Cl)c(-c2ccc3nc(NC(=O)[C@@H]4C[C@@H]4F)cn3c2)c2cn[nH]c12 [Example 366, (1S,2S)-N-(6-(5-chloro-7-((cyanomethyl)amino)-6-fluoro-1H-indazol-4-yl)imidazo[1,2-a]pyridin-2-yl)-2-fluorocyclopropane-1-carboxamide] | < 100
4 | CCOc1c(F)c(Cl)c(-c2ccc3nc(NC(=O)[C@@H]4C[C@@H]4F)sc3n2)c2cn[nH]c12 [Example 149, (1S,2S)—N-(5-(5-chloro-7-ethoxy-6-fluoro-1H-indazol-4-yl)thiazolo[5,4-b]pyridin-2-yl)-2-fluorocyclopropane-1-carboxamide] | < 100
5 | CCC(C)Nc1c(F)c(Cl)c(-c2ccc3nc(NC(=O)[C@@H]4C[C@@H]4F)cn3c2)c2cn[nH]c12 (stereo partly drawn) [Example 370, (1S,2S)-N-(6-(7-(sec-butylamino)-5-chloro-6-fluoro-1H-indazol-4-yl)imidazo[1,2-a]pyridin-2-yl)-2-fluorocyclopropane-1-carboxamide] | < 100
6 | CC(=O)c1c(F)c(C)c(-c2ccc3nc(NC(=O)[C@@H]4C[C@@H]4F)sc3c2)c2cn[nH]c12 [Example 131, (1S,2S)-N-(6-(7-acetyl-6-fluoro-5-methyl-1H-indazol-4-yl)benzo[d]thiazol-2-yl)-2-fluorocyclopropane-1-carboxamide] | 101 to 500
7 | Cc1c(F)cc2[nH]nc(Br)c2c1-c1ccc2nc(NC(=O)[C@@H]3C[C@@H]3F)sc2c1 [Example 49, (1S,2S)-N-(6-(3-bromo-6-fluoro-5-methyl-1H-indazol-4-yl)benzo[d]thiazol-2-yl)-2-fluorocyclopropane-1-carboxamide] | 501 to 1000
8 | CSc1ccc(-c2ccc3nc(NC(=O)[C@@H]4C[C@@H]4F)cn3c2)c2cn[nH]c12 [Example 340, (1S,2S)-2-fluoro-N-(6-(7-(methylthio)-1H-indazol-4-yl)imidazo[1,2-a]pyridin-2-yl)cyclopropane-1-carboxamide] | 101 to 500
9 | Cc1c(F)cc2[nH]ncc2c1-c1ccc2nc(NC(=O)[C@@H]3C[C@@H]3F)cn2c1 [Example 250, (1S,2S)-2-fluoro-N-(6-(6-fluoro-5-methyl-1H-indazol-4-yl)imidazo[1,2-a]pyridin-2-yl)cyclopropane-1-carboxamide] | < 100
10 | CN(Nc1c(F)c(Cl)c(-c2ccn3nc(NC(=O)[C@@H]4C[C@@H]4F)cc3c2)c2cn[nH]c12)C(=O)OC(C)(C)C [Example 542, tert-butyl 2-(5-chloro-6-fluoro-4-(2-((1S,2S)-2-fluorocyclopropane-1-carboxamido)pyrazolo[1,5-a]pyridin-5-yl)-1H-indazol-7-yl)-1-methylhydrazine-1-carboxylate] | < 100
11 | CSc1ccc(-c2ccc3nc(NC(=O)[C@@H]4C[C@@H]4F)sc3c2)c2cn[nH]c12 [Example 142, (1S,2S)-2-fluoro-N-(6-(7-(methylthio)-1H-indazol-4-yl)benzo[d]thiazol-2-yl)cyclopropane-1-carboxamide] | > 1000
12 | O=C(Nc1cn2cc(-c3c(Cl)c(F)c(CN4CCC4)c4[nH]ncc34)ccc2n1)[C@@H]1C[C@@H]1F [Example 380, (1S,2S)-N-(6-(7-(azetidin-1-ylmethyl)-5-chloro-6-fluoro-1H-indazol-4-yl)imidazo[1,2-a]pyridin-2-yl)-2-fluorocyclopropane-1-carboxamide] | < 100
13 | COCCSc1c(F)c(Cl)c(-c2ccc3nc(NC(=O)[C@@H]4C[C@@H]4F)sc3c2)c2cn[nH]c12 [Example 71, (1S,2S)-N-(6-(5-chloro-6-fluoro-7-((2-methoxyethyl)thio)-1H-indazol-4-yl)benzo[d]thiazol-2-yl)-2-] | < 100
14 | O=C(Nc1nc2ccc(-c3c(Cl)ccc4[nH]ncc34)cc2s1)[C@@H]1C[C@@H]1F [Example 30, (1S,2S)-N-(6-(5-chloro-1H-indazol-4-yl)benzo[d]thiazol-2-yl)-2-fluorocyclopropane-1-carboxamide] | 101 to 500
15 | O=C(O)NCC1CN(c2c(F)c(Cl)c(-c3ccc4nc(NC(=O)[C@@H]5C[C@@H]5F)sc4c3)c3cn[nH]c23)C1 [Example 90, ((1-(5-chloro-6-fluoro-4-(2-((1S,2S)-2-fluorocyclopropane-1-carboxamido)benzo[d]thiazol-6-yl)-1H-indazol-7-yl)azetidin-3-yl)methyl)carbamic acid] | < 100
16 | O=C(Nc1cn2cc(-c3c(C(F)F)ccc4[nH]ncc34)ccc2n1)C1CC1 [Example 249, N-(6-(5-(difluoromethyl)-1H-indazol-4-yl)imidazo[1,2-a]pyridin-2-yl)cyclopropanecarboxamide] | 101 to 500
17 | CN(C)c1ccc(-c2ccn3nc(NC(=O)[C@@H]4C[C@@H]4F)cc3c2)c2cn[nH]c12 [Example 595, (1S,2S)-N-(5-(7-(dimethylamino)-1H-indazol-4-yl)pyrazolo[1,5-a]pyridin-2-yl)-2-fluorocyclopropane-1-carboxamide] | 101 to 500

Other lines, results leading:

Row | IC50 [nM] | Structure (SMILES)
18 | < 100 | CCC(=O)NC(C)c1c(F)c(Cl)c(-c2ccn3nc(NC(=O)[C@@H]4C[C@@H]4F)cc3c2)c2cn[nH]c12 (stereo partly drawn) [Example 660, (1S,2S)-N-(5-(5-chloro-6-fluoro-7-(1-propionamidoethyl)-1H-indazol-4-yl)pyrazolo[1,5-a]pyridin-2-yl)-2-fluorocyclopropane-1-carboxamide]
19 | < 100 | CNc1c(F)c(Cl)c(-c2ccc3nc(NC(=O)[C@@H]4C[C@@H]4F)cn3c2)c2cn[nH]c12 [Example 265, (1S,2S)-N-(6-(5-chloro-6-fluoro-7-(methylamino)-1H-indazol-4-yl)imidazo[1,2-a]pyridin-2-yl)-2-fluorocyclopropane-1-carboxamide]
20 | < 100 | CCc1ccc2[nH]ncc2c1-c1ccn2nc(NC(=O)[C@@H]3C[C@@H]3F)cc2c1 [Example 452, (1S,2S)-N-(5-(5-ethyl-1H-indazol-4-yl)pyrazolo[1,5-a]pyridin-2-yl)-2-fluorocyclopropane-1-carboxamide]
21 | < 100 | Cc1c(F)c(C(F)F)c2[nH]ncc2c1-c1ccc2nc(NC(=O)[C@@H]3C[C@@H]3F)sc2n1 [Example 217, (1S,2S)-N-(5-(7-(difluoromethyl)-6-fluoro-5-methyl-1H-indazol-4-yl)thiazolo[5,4-b]pyridin-2-yl)-2-fluorocyclopropane-1-carboxamide]
22 | < 100 | CNNc1c(F)c(Cl)c(-c2ccn3nc(NC(=O)[C@@H]4C[C@@H]4F)cc3c2)c2cn[nH]c12 [Example 553, (1S,2S)-N-(5-(5-chloro-6-fluoro-7-(2-methylhydrazineyl)-1H-indazol-4-yl)pyrazolo[1,5-a]pyridin-2-yl)-2-fluorocyclopropane-1-carboxamide]
23 | > 1000 | CC(C)Nc1c(F)c(Cl)c(-c2cc(N)c3nc(NC(=O)[C@@H]4C[C@@H]4F)cn3c2)c2cn[nH]c12 [Example 403, (1S,2S)-N-(8-amino-6-(5-chloro-6-fluoro-7-(isopropylamino)-1H-indazol-4-yl)imidazo[1,2-a]pyridin-2-yl)-2-fluorocyclopropane-1-carboxamide. 1 formic acid]
24 | > 1000 | CN(C)C(=O)c1c(F)cc2[nH]ncc2c1-c1ccn2nc(NC(=O)[C@@H]3C[C@@H]3F)cc2c1 [Example 605, 6-fluoro-4-(2-((1S,2S)-2-fluorocyclopropane-1-carboxamido)pyrazolo[1,5-a]pyridin-5-yl)-N,N-dimethyl-1H-indazole-5-carboxamide]
25 | 101 to 500 | Cc1ccc2[nH]ncc2c1-c1ccc2nc(NC(=S)C3CC3)sc2c1 [Example 32, N-(6-(5-methyl-1H-indazol-4-yl)benzo[d]thiazol-2-yl)cyclopropanecarbothioamide]
26 | < 100 | O=C(Nc1cn2cc(-c3c(Cl)c(F)c(N(C(=O)C(F)(F)F)C4CC4)c4[nH]ncc34)ccc2n1)[C@@H]1C[C@@H]1F [Example 368, (1S,2S)-N-(6-(5-chloro-7-(N-cyclopropyl-2,2,2-trifluoroacetamido)-6-fluoro-1H-indazol-4-yl)imidazo[1,2-a]pyridin-2-yl)-2-fluorocyclopropane-1-carboxamide]
27 | 101 to 500 | Cc1c(F)c([S+](C)[O-])c2[nH]ncc2c1-c1ccc2nc(NC(=O)[C@@H]3C[C@@H]3F)cn2c1 (stereo partly drawn) [Example 299, (1S,2S)-2-fluoro-N-(6-(6-fluoro-5-methyl-7-(methylsulfinyl)-1H-indazol-4-yl)imidazo[1,2-a]pyridin-2-yl)cyclopropane-1-carboxamide]
28 | 501 to 1000 | Nc1c(Cl)cc2[nH]ncc2c1-c1ccc2nc(NC(=O)C3CC3)cn2c1 [Example 240, N-(6-(5-amino-6-chloro-1H-indazol-4-yl)imidazo[1,2-a]pyridin-2-yl)cyclopropanecarboxamide]
29 | < 100 | Cc1c(F)c(C(F)(F)F)c2[nH]ncc2c1-c1ccc2nc(NC(=O)[C@@H]3C[C@@H]3F)cn2c1 [Example 263, (1S,2S)-2-fluoro-N-(6-(6-fluoro-5-methyl-7-(trifluoromethyl)-1H-indazol-4-yl)imidazo[1,2-a]pyridin-2-yl)cyclopropane-1-carboxamide]
30 | < 100 | CSc1c(F)c(N(C)C)c2[nH]ncc2c1-c1ccc2nc(NC(=O)[C@@H]3C[C@@H]3F)cn2c1 [Example 300, (1S,2S)-N-(6-(7-(dimethylamino)-6-fluoro-5-(methylthio)-1H-indazol-4-yl)imidazo[1,2-a]pyridin-2-yl)-2-fluorocyclopropane-1-carboxamide]
